This note sets out measurements from the supplement of paper PMC10307832.

One assay concerns EKVX. In words: relative viability (nuclei count vs DMSO), 5 days (fraction); higher = more cells survive. The note with it: first compound 4 µM. Put shortly:
(§1)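 Each reported value is a median over duplicate plates. It expresses relative viability: treated-well nuclei count divided by vehicle-well nuclei count. Lung cancer cell lines in 1536-well plates were dosed by pin tool a day after seeding, alone with one drug or with a fixed anchor-drug dose plus five library-drug doses (not always all listed) in √10 steps, and nuclei were counted after 5 days.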
For `Clc1ccc(Nc2nnc(Cc3ccncc3)c3ccccc23)cc1` [Vatalanib] + Nc1nc2[nH]cc(CCc3ccc(C(=O)N[C@@H](CCC(=O)O)C(=O)O)cc3)c2c(=O)[nH]1 [Pemetrexed] (partner 0.2 µM), the relative viability was found to be 0.365.

For the next assay, the system named is EMC-BAC-2. The description is as above. The note with it: first compound 0.04 µM. Put shortly: as §1
On to `COc1cc(N2CCC(C(N)=O)CC2)ccc1Nc1nc(N)c(Cl)c(Nc2ccccc2S(=O)(=O)C(C)C)n1` [HG-5-88-01] + N=C(N)NC(=N)NCCc1ccccc1 [Phenformin] (partner 250 µM), for which the relative viability worked out at 0.541.
Turning to `Clc1ccc(Nc2nnc(Cc3ccncc3)c3ccccc23)cc1` [Vatalanib] + COc1cccc2cc(-c3nc([C@H]4CC[C@H](C(=O)O)CC4)n4ncnc(N)c34)[nH]c12 [OSI-027] (partner 0.5 µM), the relative viability was found to be 0.413.
Turning to `Clc1ccc(Nc2nnc(Cc3ccncc3)c3ccccc23)cc1` [Vatalanib] + N=C(N)NC(=N)NCCc1ccccc1 [Phenformin] (partner 250 µM), the relative viability turned out to be 0.511.
Consider `Clc1ccc(Nc2nnc(Cc3ccncc3)c3ccccc23)cc1` [Vatalanib] + Nc1nc2[nH]cc(CCc3ccc(C(=O)N[C@@H](CCC(=O)O)C(=O)O)cc3)c2c(=O)[nH]1 [Pemetrexed] (partner 0.2 µM), for which the relative viability amounted to 0.452.

Still in this assay, the particulars now being: first compound 0.1265 µM.
In the case of `COc1cc(N2CCC(C(N)=O)CC2)ccc1Nc1nc(N)c(Cl)c(Nc2ccccc2S(=O)(=O)C(C)C)n1` [HG-5-88-01] + N=C(N)NC(=N)NCCc1ccccc1 [Phenformin] (partner 250 µM), the relative viability was determined as 0.491.
The compound `Clc1ccc(Nc2nnc(Cc3ccncc3)c3ccccc23)cc1` [Vatalanib] + COc1cccc2cc(-c3nc([C@H]4CC[C@H](C(=O)O)CC4)n4ncnc(N)c34)[nH]c12 [OSI-027] (partner 0.5 µM) had a relative viability of 0.392.
On the same count and under the same terms, with `Clc1ccc(Nc2nnc(Cc3ccncc3)c3ccccc23)cc1` [Vatalanib] + N=C(N)NC(=N)NCCc1ccccc1 [Phenformin] (partner 250 µM) the figure was 0.538.
The compound `Clc1ccc(Nc2nnc(Cc3ccncc3)c3ccccc23)cc1` [Vatalanib] + Nc1nc2[nH]cc(CCc3ccc(C(=O)N[C@@H](CCC(=O)O)C(=O)O)cc3)c2c(=O)[nH]1 [Pemetrexed] (partner 0.2 µM) showed a relative viability of 0.427.

Still in this assay, the particulars now being: first compound 0.4 µM.
`COc1cc(N2CCC(C(N)=O)CC2)ccc1Nc1nc(N)c(Cl)c(Nc2ccccc2S(=O)(=O)C(C)C)n1` [HG-5-88-01] + N=C(N)NC(=N)NCCc1ccccc1 [Phenformin] (partner 250 µM): the relative viability stood at 0.442.
`Clc1ccc(Nc2nnc(Cc3ccncc3)c3ccccc23)cc1` [Vatalanib] + COc1cccc2cc(-c3nc([C@H]4CC[C@H](C(=O)O)CC4)n4ncnc(N)c34)[nH]c12 [OSI-027] (partner 0.5 µM) yielded a relative viability of 0.398.
Same read-out and setting: under `Clc1ccc(Nc2nnc(Cc3ccncc3)c3ccccc23)cc1` [Vatalanib] + N=C(N)NC(=N)NCCc1ccccc1 [Phenformin] (partner 250 µM) stands 0.542; under `Clc1ccc(Nc2nnc(Cc3ccncc3)c3ccccc23)cc1` [Vatalanib] + Nc1nc2[nH]cc(CCc3ccc(C(=O)N[C@@H](CCC(=O)O)C(=O)O)cc3)c2c(=O)[nH]1 [Pemetrexed] (partner 0.2 µM), 0.456.

The same assay, now with this note: first compound 1.265 µM.
For the compound `COc1cc(N2CCC(C(N)=O)CC2)ccc1Nc1nc(N)c(Cl)c(Nc2ccccc2S(=O)(=O)C(C)C)n1` [HG-5-88-01] + N=C(N)NC(=N)NCCc1ccccc1 [Phenformin] (partner 250 µM), the relative viability came to 0.507.
`Clc1ccc(Nc2nnc(Cc3ccncc3)c3ccccc23)cc1` [Vatalanib] + COc1cccc2cc(-c3nc([C@H]4CC[C@H](C(=O)O)CC4)n4ncnc(N)c34)[nH]c12 [OSI-027] (partner 0.5 µM) gave a relative viability of 0.335.
Still for that read-out and setting: with `Clc1ccc(Nc2nnc(Cc3ccncc3)c3ccccc23)cc1` [Vatalanib] + N=C(N)NC(=N)NCCc1ccccc1 [Phenformin] (partner 250 µM) the figure was 0.497.

Still in this assay, the particulars now being: first compound 4 µM.
`COc1cc(N2CCC(C(N)=O)CC2)ccc1Nc1nc(N)c(Cl)c(Nc2ccccc2S(=O)(=O)C(C)C)n1` [HG-5-88-01] + N=C(N)NC(=N)NCCc1ccccc1 [Phenformin] (partner 250 µM) returned a relative viability of 0.486.
On the same count and under the same terms, under `Clc1ccc(Nc2nnc(Cc3ccncc3)c3ccccc23)cc1` [Vatalanib] + COc1cccc2cc(-c3nc([C@H]4CC[C@H](C(=O)O)CC4)n4ncnc(N)c34)[nH]c12 [OSI-027] (partner 0.5 µM) stands 0.4.
On to `Clc1ccc(Nc2nnc(Cc3ccncc3)c3ccccc23)cc1` [Vatalanib] + N=C(N)NC(=N)NCCc1ccccc1 [Phenformin] (partner 250 µM), for which the relative viability was found to be 0.512.
On the same count and under the same terms, under `Clc1ccc(Nc2nnc(Cc3ccncc3)c3ccccc23)cc1` [Vatalanib] + Nc1nc2[nH]cc(CCc3ccc(C(=O)N[C@@H](CCC(=O)O)C(=O)O)cc3)c2c(=O)[nH]1 [Pemetrexed] (partner 0.2 µM) stands 0.463.

The next assay concerns NCI-H520. Described as above. The note with it: first compound 0.04 µM. Put shortly: as §1
`COc1cc(N2CCC(C(N)=O)CC2)ccc1Nc1nc(N)c(Cl)c(Nc2ccccc2S(=O)(=O)C(C)C)n1` [HG-5-88-01] + N=C(N)NC(=N)NCCc1ccccc1 [Phenformin] (partner 250 µM) registered a relative viability of 0.441.
`Clc1ccc(Nc2nnc(Cc3ccncc3)c3ccccc23)cc1` [Vatalanib] + COc1cccc2cc(-c3nc([C@H]4CC[C@H](C(=O)O)CC4)n4ncnc(N)c34)[nH]c12 [OSI-027] (partner 0.5 µM) showed a relative viability of 0.25.
For the compound `Clc1ccc(Nc2nnc(Cc3ccncc3)c3ccccc23)cc1` [Vatalanib] + N=C(N)NC(=N)NCCc1ccccc1 [Phenformin] (partner 250 µM), the relative viability was found to be 0.722.
The same measure, in the same setting: under `Clc1ccc(Nc2nnc(Cc3ccncc3)c3ccccc23)cc1` [Vatalanib] + Nc1nc2[nH]cc(CCc3ccc(C(=O)N[C@@H](CCC(=O)O)C(=O)O)cc3)c2c(=O)[nH]1 [Pemetrexed] (partner 0.2 µM) stands 0.676.

The assay is the same for the next values; noted with them: first compound 0.1265 µM.
Consider `COc1cc(N2CCC(C(N)=O)CC2)ccc1Nc1nc(N)c(Cl)c(Nc2ccccc2S(=O)(=O)C(C)C)n1` [HG-5-88-01] + N=C(N)NC(=N)NCCc1ccccc1 [Phenformin] (partner 250 µM), for which the relative viability worked out at 0.67.
`Clc1ccc(Nc2nnc(Cc3ccncc3)c3ccccc23)cc1` [Vatalanib] + COc1cccc2cc(-c3nc([C@H]4CC[C@H](C(=O)O)CC4)n4ncnc(N)c34)[nH]c12 [OSI-027] (partner 0.5 µM) registered a relative viability of 0.23.
`Clc1ccc(Nc2nnc(Cc3ccncc3)c3ccccc23)cc1` [Vatalanib] + N=C(N)NC(=N)NCCc1ccccc1 [Phenformin] (partner 250 µM): the relative viability was found to be 0.412.
Same read-out and setting: with `Clc1ccc(Nc2nnc(Cc3ccncc3)c3ccccc23)cc1` [Vatalanib] + Nc1nc2[nH]cc(CCc3ccc(C(=O)N[C@@H](CCC(=O)O)C(=O)O)cc3)c2c(=O)[nH]1 [Pemetrexed] (partner 0.2 µM) the figure was 0.654.

The assay is the same for the next values; noted with them: first compound 0.4 µM.
`COc1cc(N2CCC(C(N)=O)CC2)ccc1Nc1nc(N)c(Cl)c(Nc2ccccc2S(=O)(=O)C(C)C)n1` [HG-5-88-01] + N=C(N)NC(=N)NCCc1ccccc1 [Phenformin] (partner 250 µM) gave a relative viability of 0.57.
